Experiments:
Format in all cases: in vivo, Wistar rat
[1] = system: full-thickness skin defect; test: Wound healing score, circular full-thickness skin defect on the dorsal part; conditions: 20 μL administration liquid containing 1 mg of the fatty acid at each of four locations; FIG. 6C
Description: Formation of wounds: hair on the dorsal part of a 12-week-old Wistar rat was shaven with hair clippers, and a circular full-thickness skin defect with a diameter of 8 mm was produced on each of the left and right sides of the head and the left and right sides of the tail. The full-thickness skin defect was formed at four locations per body.
Administration of milk: 20 μL of milk was subcutaneously injected at each of four locations, namely upper, lower, left and right, in a place 4 mm away from the peripheral edge of the wound. As the milk, the commercially available bovine milk sterilized by heating (at 130 degrees for 2 seconds and 65 degrees for 30 minutes) as described in Example 1 was used.
Administration of fatty acid: As a fatty acid contained in the milk, sterile purified water (administration liquid) containing palmitic acid, stearic acid, myristic acid, linolenic acid, α-linoleic acid and oleic acid, respectively was administered. Here, the water was heated and administered for the saturated fatty acids, and the water was administered at room temperature for the unsaturated fatty acids. 20 μL of the administration liquid (containing 1 mg of the fatty acid) was subcutaneously administered at each of four locations, namely upper, lower, left and right, in a place 4 mm away from the peripheral edge of the wound.
Score 4: The reduction ratio of the area of the wound site is 70% or more.
Score 3: The reduction ratio of the area of the wound site is 50% or more and less than 70%.
Score 2: The reduction ratio of the area of the wound site is 20% or more and less than 50%.
Score 1: The reduction ratio of the area of the wound site is less than 20%.
The result was given as a ratio obtained by dividing the above score by the score for physiological saline.
Two tubes of 8 mL of commercially available milk sterilized at a low temperature (65 degrees for 30 minutes) were centrifuged by a centrifugal separator (2600 g×6 minutes), 2 mL of one fourth of the supernatant exclusive of a whip portion was collected from each tube, the two collected liquids were combined to obtain 4 mL of a liquid, and 4 mL of the resulting liquid was stirred, and used for experiments (hereinafter, the obtained sample is referred to as a “centrifuged sample”). The obtained centrifuged sample was administered to the wound site at a dosage of 20 μL per location in the same manner as described above. The results are shown in “Centrifuged Sample” in FIG. 6A.
Next, a wound healing-promoting effect of lactoferrin was examined. As lactoferrin, Nice rim essence 62971 (trade name) purchased from Lion Corporation was used and administered at one location in an amount of 20 μg or 60 μg in the same manner as described above. Specifically, the lactoferrin was ground, and then thoroughly dissolved in purified water. The lactoferrin concentration was adjusted so that an injection amount of 20 μL included the above administration amount. The result was given as a value obtained by dividing each of scores after seven days and after ten days by the score for the physiological saline administration group.

PPAR-γ-positive cells = test: Immunohistological staining of rat dorsal skin after injection of fatty acids (PPAR-γ); conditions: 1 mg fatty acid in 20 μL per location
Description: Next, representative fatty acids contained in milk were administered to a 12-week-old Wistar rat at a plurality of locations on the dorsal skin as in Example 1(2) above, and a change in tissues by the administration was observed after the tissues were subjected to immunohistological staining. More specifically, physiological saline was administered in an amount of 20 μL per location, an administration liquid containing 1 mg of a fatty acid was administered in an amount of 20 μL per location, and a change in CD68-positive macrophage stained images and PPAR-γ-positive cell images by the administration was observed. Samples of the Wistar rat were obtained by sampling administration sites (four weeks after administration and eight weeks after administration). FIGS. 10A to 10G show the results. […] At saturated fatty acid injection sites, infiltration of a large number of CD68-positive cells was observed, and fibrillization of normal tissues was observed. Therefore, in FIGS. 10B to 10D, a change in fat tissues was examined at a location which was closest to the administration site and where normal tissues were maintained (non-fibrillization location).

CD34 = test: Quantitative PCR of dorsal tissues after subcutaneous administration (CD34); conditions: 20 μL per location into rat dorsal part; vs control without administration; FIG. 15
Description: 5.) CD34, Rattus norvegicus: CD34 molecule (Cd34), mRNA 1,161 bp NM 001107202.2 GI: 169790781 Next, a change in gene expression in tissues was examined. Three regions were set between the head and the tail of the dorsal part of a 12-week-old Wistar rat (male), and each region was divided between the left and the right of the backbone into two regions to set a total of six regions on the dorsal part. Milk or palmitic acid was injected in an amount of 20 μL per location at two locations in the vicinity of the center of each region. The distance between the two locations was 1 cm. The collected tissue fragments were frozen with liquid nitrogen, and stored at −80° C. […] Analysis of gene expression by quantitative PCR was performed in the following manner: Integrated DNA technologies, Inc (Skokie, Ill., USA) was requested to design and synthesize gene-specific primers and probes, and using PrimeTime Gene Expression Master Mix Reagent (Integrated DNA Technologies, Inc, Skokie, Ill., USA) and Rotor-Gene Q PCR Apparatus (QIAGEN GmbH, Hilden, Germany), PCR analysis was performed twice per gene per specimen to analyze the expression level of a target gene. […]

## CCCCCCCCCCCCCCCC(=O)O [palmitic acid]
[1]
  wound healing-promoting effect (score divided by the score for physiological saline): high promoting effect
PPAR-γ-positive cells; eight weeks after administration
  increase in the number of PPAR-γ-positive cells at the administration site: maintained
PPAR-γ-positive cells; four weeks after administration, vs physiological saline, FIGS. 10B-10G
  number of PPAR-γ-positive cells at the administration site: increased
CD34
  CD34 gene expression in tissues: increase
